In a compilation of properties of binary mixtures (doi:10.1021/acs.jpcc.9b07923):

Experiment: xn = mol fraction of the nth substance listed
Conditions: 100 kPa

Fc1ccccn1 + Fc1cccc[nH+]1.O=S(=O)([O-])C(F)(F)F
Conditions	electrical conductivity [S/m]
242.2 K, x1 = 0.95	0.091
242.4 K, x1 = 0.5	0.0018
242.6 K, x1 = 0.86	0.075
244.9 K, x2 = 0.01	0.083
247.7 K, x1 = 0.9	0.109
251.9 K, x1 = 0.95	0.118
252.3 K, x1 = 0.86	0.113
252.8 K, x1 = 0.5	0.0037
254.7 K, x2 = 0.01	0.102
257.7 K, x1 = 0.9	0.168
262 K, x1 = 0.95	0.353
262.5 K, x2 = 0.01	0.12
262.6 K, x1 = 0.9	0.201
262.7 K, x1 = 0.86	0.161
267.6 K, x1 = 0.86	0.187
267.6 K, x1 = 0.9	0.24
271.8 K, x1 = 0.95	0.445
272.4 K, x1 = 0.9	0.279
272.5 K, x1 = 0.86	0.229
272.6 K, x2 = 0.01	0.137
272.7 K, x1 = 0.5	0.0132
277.5 K, x1 = 0.9	0.532
277.9 K, x1 = 0.86	0.295
282.6 K, x2 = 0.01	0.156
282.9 K, x1 = 0.86	0.408
287.4 K, x1 = 0.5	0.0369
287.7 K, x1 = 0.9	0.608
287.7 K, x2 = 0.01	0.161
292.1 K, x1 = 0.95	0.596
292.2 K, x1 = 0.5	0.0485
292.6 K, x1 = 0.86	0.658
296.9 K, x1 = 0.95	0.644
297.4 K, x1 = 0.5	0.0902
297.6 K, x1 = 0.86	0.711
297.6 K, x2 = 0.01	0.189
302.3 K, x1 = 0.5	0.185
302.5 K, x2 = 0.01	0.204
303 K, x1 = 0.86	0.769
303.3 K, x1 = 0.95	0.664
